Source: patent EP1949899A1, “Metal salophen complexes use in prevention and treatment of cancer” (Freie Universität Berlin, priority 2007, dated 2008)
Like-named read-outs stand apart in the source and are kept apart here.

Experiments:
MDA-MB-231-cells = test: Concentration dependent cytotoxicity test (IC50) on MDA-MB-231 cells; format: cell-based
Experimental: (§1) Measurement of IC50-values was performed as described by Ott, I. et al., Journal of Medicinal Chemistry, 2005, 48 (2): 622-629. But unlike described in the literature, the experiments with MCF-7-cells were stopped after 96 hours and experiments with MDA-MB-231-cells were stopped after 72 hours.

MCF-7-cells = test: Concentration dependent cytotoxicity test (IC50) on MCF-7 cells; format: cell-based
Experimental: as §1

LNCaP-FGC-cells = test: Time dependent test (crystal violet assay) on LNCaP-FGC-cells; format: cell-based
Experimental: The time dependent tests were performed according to Reile, H. et al.: "Computerized Determination of Growth Kinetic Curves and Doubling Times from Cells in Microculture", Analytical Biochemistry, 1990, 187 (2): 262-267; Bernhardt, G. et al.: "Standardized kinetic microassay to quantifiy differential chemosensitivity on the basis of proliferative activity", Journal of Research Clin. Oncol., 1992, 118: 35-43 and Gust, R. et al.: "Development of Cobalt(3,4-diarylsalen) Complexes as Tumor Therapeutics", Journal of Medicinal Chemistry, 2004, 47 (24): 5837-5846.
Determining the cell mass in the crystal violet assay the interpretation of the received values was the following: […]

MCF-7 cells [1] = settings: Ghezzi, A. et al., 2004; cited from earlier work
[2] = tested on: supercoiled plasmid DNA (pSK Bluescript); test: DNA cleavage reactions with plasmid DNA on agarose gels; format: biochemical; settings: for DNA cleaving effect: 1 h at 37 °C
Experimental: General procedure for DNA cleavage reactions with plasmid DNA on agarose gels
100 µl reaction mixture contained 1 µg of supercoiled plasmid DNA (pSK Bluescript) in a tris-HCI buffer at pH 7.0, 1 µl of iron complex solution at the desired concentration (10 mM to 10 µM in DMSO) and in some cases 1 µl of 100 µM dithiothreitol solution resp. 1 µl of 1 mM mercaptoethanol solution. After incubation at 37 °C for the indicated time, 1 µl of loading buffer (0.25 % bromophenol blue, 0,25 % xylene cyanol, 30 % glycerin in H2O) was added to 5 µl reaction mixture (containing 50 ng plasmid DNA) and subsequently loaded onto a 0.8 % agarose gel. One µl of 1 kb-DNA-ladder (NewEnglandBiolabs, #N3232L) was loaded for estimation of size and amount of loaded DNA sample. The electrophoresis was carried out for ~ 45 min at 100 V in TBE buffer at pH 8.3. Gels were stained with etidium bromide (1 µg/ml) and photographed under 254 nm UV light.

MDA-MB-231 cells = test: Time dependent test (crystal violet assay) on MDA-MB-231 cells; format: cell-based
MCF-7 cells [3] = test: Time dependent test (crystal violet assay) on MCF-7 cells; format: cell-based
HeLa cells = test: Time dependent test (crystal violet assay) on HeLa cells; format: cell-based
[4] = Homo sapiens, MDA-MB-231, stopped after 72 hours, read-out: IC50
[5] = Homo sapiens, MCF7, MCF-7, stopped after 96 hours, read-out: IC50
[6] = MDA-MB-231, stopped after 72 hours, read-out: IC50
[7] = MCF-7, stopped after 96 hours, read-out: IC50
[8] = higher concentrations (1-10 µM)
[9] = low concentrations (0,1 µM), in the presence of a reducing agent

O=c1[nH]cc(F)c(=O)[nH]1 [5-fluorouracil]
IC50 (MDA-MB-231-cells; [4]): 9.6 µM | IC50 (MCF-7-cells; [5]): 4.8 µM

N.N.O=C([O-])C1(C(=O)[O-])CCC1.[Pt+2] [Carboplatin]
minimum T/Ccorr- resp. τ-value (LNCaP-FGC-cells; 0.5 µM): 69.5% | minimum T/Ccorr- resp. τ-value (LNCaP-FGC-cells; 1 µM): 55.5% | minimum T/Ccorr- resp. τ-value (LNCaP-FGC-cells; 5 µM): 19.6% | enrichment in comparison with the outer medium (MCF-7 cells [1]): 1,6

C#CCOC(=O)c1ccccc1OC(C)=O.[C-]#[O+].[C-]#[O+].[C-]#[O+].[C-]#[O+].[C-]#[O+].[C-]#[O+].[Co].[Co] [Co-Ass, Hexacarbonyl[2-propyn-1-ylacetylsalicylat]dicobalt]
IC50 (MDA-MB-231-cells; [6]): 1.9 µM | IC50 (MCF-7-cells; [7]): 1.4 µM

[Fe+2].[O-]c1ccccc1C=Nc1ccccc1N=Cc1ccccc1[O-] [Fe(II)salophen, [N,N'-Bis(salicylidene)phenylene-1,2-diamine]-iron(II)]
DNA cleaving effect [2, 8]: DNA double strand breakages | DNA cleaving effect [2, 9]: DNA single strand breakages | minimum T/Ccorr- resp. τ-value (MDA-MB-231 cells; MDA-MB-231, 0.05 µM): 90.0% | minimum T/Ccorr- resp. τ-value (MDA-MB-231 cells; MDA-MB-231, 0.1 µM): 41.9% | minimum T/Ccorr- resp. τ-value (MDA-MB-231 cells; MDA-MB-231, 0.5 µM): -19.1% | minimum T/Ccorr- resp. τ-value (MDA-MB-231 cells; MDA-MB-231, 1 µM): -29.7% | IC50 (MDA-MB-231-cells; [6]): 0.1 µM | IC50 (MCF-7-cells; [7]): 0.4 µM | minimum T/Ccorr- resp. τ-value (LNCaP-FGC-cells; 0.1 µM): 47.3% | minimum T/Ccorr- resp. τ-value (LNCaP-FGC-cells; 0.5 µM): 8.9% | minimum T/Ccorr- resp. τ-value (LNCaP-FGC-cells; 1 µM): -25.6% | minimum T/Ccorr- resp. τ-value (MCF-7 cells [3]; MCF-7, 0.05 µM): 96.5% | minimum T/Ccorr- resp. τ-value (MCF-7 cells [3]; MCF-7, 0.1 µM): 96.7% | minimum T/Ccorr- resp. τ-value (MCF-7 cells [3]; MCF-7, 0.5 µM): 35.7% | minimum T/Ccorr- resp. τ-value (MCF-7 cells [3]; MCF-7, 1 µM): -35.9%

[Cl-].[Fe+3].[O-]c1ccccc1C=Nc1ccccc1N=Cc1ccccc1[O-] [Fe(III)salophen chloride, [N,N'-Bis(salicylidene)phenylene-1,2-diamine]-iron(III)-chloride]
DNA cleaving effect [2, 8]: DNA double strand breakages | DNA cleaving effect [2, 9]: DNA single strand breakages | minimum T/Ccorr- resp. τ-value (MDA-MB-231 cells; MDA-MB-231, 0.05 µM): 46.0% | minimum T/Ccorr- resp. τ-value (MDA-MB-231 cells; MDA-MB-231, 0.1 µM): 66.2% | minimum T/Ccorr- resp. τ-value (MDA-MB-231 cells; MDA-MB-231, 0.5 µM): -27.8% | minimum T/Ccorr- resp. τ-value (MDA-MB-231 cells; MDA-MB-231, 1 µM): -40.8% | IC50 (MDA-MB-231-cells; [6]): 0.01 µM | IC50 (MCF-7-cells; [7]): 0.3 µM | minimum T/Ccorr- resp. τ-value (HeLa cells; 0.1 µM): 36.2% | minimum T/Ccorr- resp. τ-value (HeLa cells; 0.5 µM): 52.1% | minimum T/Ccorr- resp. τ-value (HeLa cells; 1 µM): -26.0% | minimum T/Ccorr- resp. τ-value (LNCaP-FGC-cells; 0.1 µM): 34.4% | minimum T/Ccorr- resp. τ-value (LNCaP-FGC-cells; 0.5 µM): 3.6% | minimum T/Ccorr- resp. τ-value (LNCaP-FGC-cells; 1 µM): -19.5% | minimum T/Ccorr- resp. τ-value (MCF-7 cells [3]; MCF-7, 0.05 µM): 92.6% | minimum T/Ccorr- resp. τ-value (MCF-7 cells [3]; MCF-7, 0.1 µM): 80.4% | effect on cell mass (interpretation of T/Ccorr resp. τ) (MCF-7 cells [3]; MCF-7, 0.5 µM): cytocide effect (T/Ccorr or τ < 0 %) | minimum T/Ccorr- resp. τ-value (MCF-7 cells [3]; MCF-7, 0.5 µM): -23.4% | minimum T/Ccorr- resp. τ-value (MCF-7 cells [3]; MCF-7, 1 µM): -50.8%

CC(=O)[O-].CC(=O)[O-].[Fe+2] [Fe(OAc)2]
IC50 (MDA-MB-231-cells; [6]): > 50 µM | IC50 (MCF-7-cells; [7]): > 50 µM

[Cl][Fe]([Cl])[Cl] [FeCl3]
IC50 (MDA-MB-231-cells; [6]): > 100 µM | IC50 (MCF-7-cells; [7]): > 100 µM

N[C@@H](Cc1ccc(N(CCCl)CCCl)cc1)C(=O)O [Melphalan]
IC50 (MDA-MB-231-cells; Homo sapiens, MDA-MB-231, 72 h): 3.9 µM | IC50 (MCF-7-cells; Homo sapiens, MCF7, 96 h): 5.7 µM

O=C1[O][Pt]2([NH][C@@H]3CCCC[C@H]3[NH]2)[O]C1=O [Oxaliplatin]
minimum T/Ccorr- resp. τ-value (LNCaP-FGC-cells; 0.5 µM): 12.7% | minimum T/Ccorr- resp. τ-value (LNCaP-FGC-cells; 1 µM): -0.6% | minimum T/Ccorr- resp. τ-value (LNCaP-FGC-cells; 5 µM): -31.0% | enrichment in comparison with the outer medium (MCF-7 cells [1]): sixfold

N.N.[Cl][Pt][Cl] [cisplatin, reference compound]
minimum T/Ccorr- resp. τ-value (MDA-MB-231 cells; MDA-MB-231, 0.5 µM): 79.7% | minimum T/Ccorr- resp. τ-value (MDA-MB-231 cells; MDA-MB-231, 1 µM): 69.0% | IC50 (MDA-MB-231-cells; [6]): 4 µM | IC50 (MCF-7-cells; [7]): 2 µM | minimum T/Ccorr- resp. τ-value (HeLa cells; 0.5 µM): 55.9% | minimum T/Ccorr- resp. τ-value (HeLa cells; 1 µM): 33.5% | minimum T/Ccorr- resp. τ-value (LNCaP-FGC-cells; 0.5 µM): 59.0% | minimum T/Ccorr- resp. τ-value (LNCaP-FGC-cells; 1 µM): 32.7% | minimum T/Ccorr- resp. τ-value (LNCaP-FGC-cells; 5 µM): 6.7% | enrichment in comparison with the outer medium (MCF-7 cells [1]): fivefold | minimum T/Ccorr- resp. τ-value (MCF-7 cells [3]; MCF-7, 0.5 µM): 55.1% | minimum T/Ccorr- resp. τ-value (MCF-7 cells [3]; MCF-7, 1 µM): 2.2%

Oc1ccccc1C=Nc1ccccc1N=Cc1ccccc1O [ligand, N,N'-bis(salicylidene)-phenylene-1,2-diamine, reference compound]
DNA decomposition ([2]; 1 h incubation at 37 °C, with or without additional reducing agents (DTT, 2-ME)): not able to decompose DNA

Nc1ccccc1N [o-phenylenediamine]
IC50 (MDA-MB-231-cells; [4]): 23.5 µM | IC50 (MCF-7-cells; [5]): 5.1 µM
